Test results from patent publication US11058119B2, “Biologicals and their use in plants” (priority 2015, dated 2021).

Legend:
[1] = system: Metarhizium robertsii (15013-1); assay: Determination of fungicide sensitivity, conidia growth in liquid media; type: cell-based; settings: 5,000 conidia in 0.5 ml YMA, 26° C., visual observation
Description: (§1) Conidia of Metarhizium robertsii (15013-1) and Metarhizium robertsii (23013-3) were produced by growing the fungus on potato dextrose agar plates for 1-2 weeks at 23° C. under continuous illumination from fluorescent lights. Conidia were harvested from the plate in water containing Tween-20 (0.01%) and counted using a hemacytometer. Fungicide sensitivity was determined by mixing 5,000 conidia in 0.5 ml of YMA (2 g yeast extract, 4 g malt extract per liter) liquid media containing varying concentrations of commercially available fungicides active against filamentous fungi in a 24 well plate. Plates were incubated for […] at 26° C. and then growth was assessed by visual observation with a stereomicroscope.

[2] = system: Metarhizium robertsii (23013-3); assay: as above; type: cell-based; settings: 5,000 conidia in 0.5 ml YMA, 26° C., visual observation
Description: as §1

Structure (SMILES) | growth of 15013-1 conidia compared to a control without any fungicide ([1]; Fungicide Concentration 3 uM) | growth of 15013-1 conidia compared to a control without any fungicide ([1]; Fungicide Concentration 10 uM) | growth of 15013-1 conidia compared to a control without any fungicide ([1]; Fungicide Concentration 30 uM) | growth of 23013-3 conidia compared to a control without any fungicide ([2]; Fungicide Concentration 3 uM) | growth of 23013-3 conidia compared to a control without any fungicide ([2]; Fungicide Concentration 10 uM) | growth of 23013-3 conidia compared to a control without any fungicide ([2]; Fungicide Concentration 30 uM)
N#Cc1c[nH]cc1-c1cccc2c1OC(F)(F)O2 [Fludioxonil] | + (growth of about 10% or about 90% inhibition compared to a control without any fungicide) | + (growth of about 10% or about 90% inhibition compared to a control without any fungicide) | + (growth of about 10% or about 90% inhibition compared to a control without any fungicide) | + (growth of about 10% or about 90% inhibition compared to a control without any fungicide) | + (growth of about 10% or about 90% inhibition compared to a control without any fungicide) | + (growth of about 10% or about 90% inhibition compared to a control without any fungicide)
CO/C=C(/C(=O)OC)c1ccccc1Oc1cc(Oc2ccccc2C#N)ncn1 [Azoxystrobin] | ++ (growth of about 20% or about 80% inhibition compared to a control without any fungicide) | + (growth of about 10% or about 90% inhibition compared to a control without any fungicide) | − | + (growth of about 10% or about 90% inhibition compared to a control without any fungicide) | − | −
c1ccc2[nH]c(-c3cscn3)nc2c1 [Thiabendazole] | ++++ (growth of about 50% or more compared to a control without any fungicide) | ++++ (growth of about 50% or more compared to a control without any fungicide) | ++++ (growth of about 50% or more compared to a control without any fungicide) | +++ (growth of about 30% or about 70% inhibition compared to a control without any fungicide) | ++++ (growth of about 50% or more compared to a control without any fungicide) | ++++ (growth of about 50% or more compared to a control without any fungicide)
